Data published in patent US8324261B2, “Histidine derivatives” (Nippon Zoki Pharmaceutical Co., Ltd., priority 2007, dated 2012).
Read-outs that look alike come from different tables or passages of the source.

What was measured:
rats [1] = test: Hyperalgesia in osteoarthritis model induced by monoiodoacetic acid into joints of rats; type: in vivo; conditions: oral administration of 1 mg/kg
Chung model rat = test: Test for analgesic effect (2)/(3): Chung model rat, mechanical allodynia by von Frey filament; type: in vivo, rats
Procedure: A test for analgesic effect was conducted using a Chung model rat which is a neuropathic pain model. As to the test animal, male rats of Wistar strain of nine weeks age were used and model rats were prepared in accordance with the method of Kim and Chung (Pain, vol. 50, pages 355 to 363, 1992). Thus, under anesthetization with pentobarbital (40 mg/kg, intraperitoneal administration), rat L5 spinal nerve was exposed and L5 dorsal root ganglion periphery side was strongly ligated using 5-0 silk yarn. The animals were placed in a transparent acrylate cage whose bottom was made of wire net, a 50% reaction threshold value was calculated by an up-down method using a von Frey filament (manufactured by North Coast Medical Inc.) according to the methods of Chaplan, et al. (J. Neurosci. Method, vol. 53, pages 55 to 63, 1994) and by Lee, et al. (J. Neurophysiol., vol. 81, pages 2226 to 2233, 1999) and measurement of allodynia was conducted. Before injury of spinal nerve, the 50% reaction threshold value was measured twice and the animals where the threshold value was outside the standard were excluded from the operation for spinal nerve injury. […] Those test animals were made into groups of seven animals so that the mean value of 50% reaction threshold after 28 days from the nerve injury as an index became nearly the same in each group.
The carboxylic acid type of the compounds of the present invention as a test substance was intraperitoneally administered in a single dose while, a 0.5% CMC-Na/physiological saline solution was administered similarly to a nerve injury control group. After 30 minutes from the administration of the test substance, allodynia was measured to calculate a 50% reaction threshold value. With regard to a significance test, Paired t-test was conducted for comparison between before and after the nerve injury and Dunnett's multiple comparison test was used for comparison among multiple groups of the nerve injury control group and the test substance administration group.
According to the same manner as in the above Test for Analgesic Effect (2), each of Compound 12 of the present invention (3 mg/kg, 10 mg/kg) and Carboxylic acid substance A of the compound of the present invention (10 mg/kg) was orally administered in a single dose as the test substance to Chung model rats. Allodynia after 0, 15, 30, 60 and 120 minutes from the administration was measured for each of the test substance administration group and the nerve injury control group whereupon a 50% reaction threshold value was calculated.

[2] = set-up: species or system cynomolgus monkeys; conditions: cynomolgus monkey, in vivo, 30 mg/kg
Procedure: Each of the compound of the present invention and Carboxylic acid type A thereof dissolved or suspended in a hydrochloric acid solution was diluted with water. […] At the stages of before the administration and of 0.25, 0.5, 1, 2, 4, 8 and 24 hour(s) after the administration, the blood was collected from femoral vein using a syringe to which heparin was added followed by subjecting to centrifugation to collect the plasma. Collection of the blood was conducted for three times in total where one collection was done with each blank term of six days for each test substance. Concentration of Carboxylic acid type A in each of the collected plasma samples was quantified by an LC-MS and Cmax (maximum drug concentration in plasma) and AUC (area under blood concentration time curve; 0 to ∞ hour(s)) of the compound of the present invention and Carboxylic acid type A thereof were calculated.

mice [3] = test: Test for analgesic effect (4): acetic acid writhing test; type: in vivo; conditions: oral single dose; 0.7% acetic acid i.p. 25 minutes after; writhing numbers during 10 minutes
Procedure: The compounds of the present invention or the carboxylic acid type thereof were orally administered to mice and a test for an analgesic effect was carried out by means of an acetic acid writhing test. As to the test animals, male mice of ddY strain of four weeks age were subjected to a preliminary breeding and they were used where one group comprised ten mice. Each of the compound of the present invention or the carboxylic acid type thereof as a test substance was orally administered in a single dose while, to a control group, distilled water (water for injection) was administered similarly. After 25 minutes from the administration of the test substance, a 0.7% acetic acid/physiological saline was intraperitoneally administered at the dose of 10 mL/kg. From 5 minutes thereafter, writhing numbers during 10 minutes were counted and a suppressive rate for each mouse was calculated according to the following formula. Suppressive Rate (%)=[(Mean writhing numbers of the control group)−(Writhing numbers of each mouse)]÷[Mean writhing numbers of the control group]×100

[4] = Test of kinetics in blood of rats; type: in vivo; conditions: rat, in vivo, po, 10 mg/kg
Procedure: Each of the compound of the present invention and the carboxylic acid type A thereof was dissolved in DMSO, diluted with water. A sample solution (1% DMSO solution) made into 2 mg/mL was orally administered in a single dose to the fasted Wistar strain SPF male rats of seven weeks age using a stomach tube (10 mg/5 mL/kg). At the stages of 0.25, 0.5, 1, 2, 4 and 8 hour(s) after the administration, about 150 μL of the blood was collected from tail vein using a capillary to which heparin was added and said capillary was centrifuged to collect the plasma. Protein was removed from the plasma sample and the supernatant liquid was diluted to prepare each sample solution for the measurement.

rats [5] = test: Formalin pain test for rats, second phase; type: in vivo; conditions: oral administration of 100 mg/kg
SART stressed mouse = test: Test for analgesic effect (1): SART stressed mouse, modified Randall-Selitto tail pressure method; type: in vivo, mice
mice [6] = test: Single dose toxicity test by administration to mice; type: in vivo; conditions: intraperitoneal 250, 500 and 1,000 mg/kg; 14 days
Procedure: A single dose toxicity test by intraperitoneal administration of the carboxylic acid type of the compounds of the present invention to mice was carried out. Male mice of ddY strain of four weeks age were made into groups of five mice so as to make mean body weight in each group nearly the same. Carboxylic acid type A as a test substance was intraperitoneally administered at the doses of 250 mg/kg, 500 mg/kg and 1,000 mg/kg.

[7] = intraperitoneally administered 100 μg/kg to mice

SMILES: C=CC(=O)N[C@@H](Cc1cncn1C)C(=O)O [Carboxylic acid type A, N^α-acryloyl-N^π-methyl-L-histidine]
- analgesic effect on hyperalgesia (rats [1]): significant analgesic effect
- threshold as compared with the nerve injury control group (Chung model rat; intraperitoneal single dose): significant increase in the threshold
- 50% reaction threshold value (Chung model rat; intraperitoneally 100 μg/kg single dose, 30 minutes after administration): 9.60 g
- anti-allodynia action to mechanical allodynia (Chung model rat; oral administration, dose of 10 mg/kg, peak after 30 minutes): significant anti-allodynia action
- ED50 value determined from the improving rate at the peak of the action (Chung model rat; oral administration, peak after 30 minutes): 2.4 mg/kg
- anti-allodynia action as compared with the nerve injury control group (Chung model rat; oral single dose (Compound 12: 3 and 10 mg/kg; Carboxylic acid type A: 10 mg/kg), 15, 30 and 60 minutes after administration, FIG. 1): significant anti-allodynia action
- AUC [2]: 2356.9 ng·h/mL
- Cmax [2]: 410.8 ng/mL
- Suppressive Rate (%) (mice [3]): 33.1%
- AUC [4]: 1339.4 ng·h/mL
- Cmax [4]: 372.5 ng/mL
- analgesic action against pain reaction in the second phase (rats [5]): significant analgesic action
- Analgesic coefficient (SART stressed mouse; 25 ng per mouse into the lateral ventricle, 30 minutes after administration, pain threshold of test group divided by that of SART control group, 1.0 = no effect): 1.33
- Analgesic coefficient (SART stressed mouse; [7]): 1.24
- pain threshold value (SART stressed mouse; [7]): 97.8 g
- analgesic action (SART stressed mouse; oral administration in mice, dose of 3 and 10 mg/kg, peak after 30 minutes): significant analgesic action
- ED50 value determined from the improving rate at peak of action (SART stressed mouse; oral administration in mice, peak after 30 minutes): 2.7 mg/kg
- death (mice [6]): no death case
